Measured values as given in patent US12584915B2, “Glyphosate biosensor” (priority 2019, dated 2026).
Like-named read-outs stand apart in the source and are kept apart here.

Legend:
PND177NΔ (SEQ ID NO: 2) [1] = assay: biochemical; type: binding, E. coli; conditions: PhnD-E177NΔ sensor vs wild type
Text: (§1) To determine the Kd values, the ratio of fluorescence between two wavelengths (570 nm/450 nm) was monitored as a function of increasing ligand concentrations (FIGS. 2 and 3). The titration data were fit to a single binding isotherm equation (eq. 1), where R is defined as the fluorescence ratio at a given ligand concentration [L], R0 is the fluorescence ratio in the absence of ligand and Rmax is the fluorescence ratio at saturating ligand concentrations.
(§2) Fluorescent screening and data Analysis. All fluorescence measurements were collected on a SpectraM2 fluorescence spectrometer at 22° C. Acrylodan excitation was set-up at 359 nm and an emission sweep was collected between 400-600 nm. Coumarin conjugated PhnD was excited at 419 nm and an emission spectrum was collected between 430-520 nm. Titrations were performed by increasing concentration of ligand and monitoring the changes in fluorescence intensity at 465 nm for coumarin conjugates or the ratio of fluorescence at 570 nm/450 nm. Error bars represent the standard deviation from three individual titrations. The fluorescence intensity at each wavelength was measured three times for each ligand concentration and the average of the reading was calculated. The ratio of the two averages from each of the three titrations was used to calculate the standard deviation. Kd values were determined by fitting the titration data to the following single binding isotherm equation using Kaleidagraph, where F is the observed fluorescence at a certain ligand concentration [L], Fo is the fluorescence in the absence of ligand, and Fmax is the fluorescence at saturating ligand concentrations.

PND177NΔ (SEQ ID NO: 2) [2] = biological target: T1, PND177NΔ (SEQ ID NO: 2) (Escherichia coli, UniProt P16682, E203N/N152C); assay: biochemical; type: binding, E. coli; conditions: for affinity of the sensor for the ligand, in words: PhnD-E177NΔ sensor
T1 construct: made in house; host or cells: E. coli BL21 DE3
Text: as §1, §2

WT (SEQ ID NO: 5) EcPhnD = biological target: T2, WT (SEQ ID NO: 5) EcPhnD (Escherichia coli, UniProt P16682, N152C); assay: biochemical; type: binding, E. coli
T2 construct: made in house; host or cells: E. coli BL21 DE3
Experimental: as §2

EcPhnD = EcPhnD (Escherichia coli, UniProt P16682); conditions: cited from earlier work
[3] = Fluorescence titration of acrylodan-labelled PhnD variants with glyphosate; type: binding
Text: The fluorescent reporter group attached to PhnD changes its emission properties in response to glyphosate binding which can be observed using fluorescent spectroscopy. This allows detection of a ligand (in this case glyphosate), where fluorescence emission can be used to determine the concentration of glyphosate in solution. Two main types of data were collected, Apo vs Saturated spectra showing fluorescence emission with and without glyphosate (not shown), and the other type was titrations done with increasing glyphosate concentrations to determine the Kd value for each mutant for glyphosate.
The purified, fluorescently-labeled mutants were tested for their ability to bind to glyphosate. Kd values were determined by monitoring the changes in fluorescence as a function of increasing ligand concentrations. Table 1 provides dissociation constants (Kd values) of different PhnD variants for glyphosate. All mutants contain a cysteine at position 126 for attachment of acrylodan. Values were obtained by monitoring fluorescence change as a function of ligand concentration using eq. 1.
as §1, with “Importantly, the change in fluorescence associated with ligand binding is ratiometric with a larger decrease in emission at lower wavelengths. To” for “To”
Fluorescent screening and data Analysis. All fluorescence measurements were collected on a SpectraM2 fluorescence spectrometer at 22° C. […] Titrations were performed by increasing concentration of ligand and monitoring the changes in fluorescence intensity at 465 nm for coumarin conjugates or the ratio of fluorescence at 570 nm/450 nm. […]

[4] = PND177NΔ (SEQ ID NO: 2), acrylodan, ratio 570 nm/450 nm, read-out: PND177NΔ Kd
[5] = WT (SEQ ID NO: 5), read-out: WT Kd

T2 sequence (P16682 27-338 N152C): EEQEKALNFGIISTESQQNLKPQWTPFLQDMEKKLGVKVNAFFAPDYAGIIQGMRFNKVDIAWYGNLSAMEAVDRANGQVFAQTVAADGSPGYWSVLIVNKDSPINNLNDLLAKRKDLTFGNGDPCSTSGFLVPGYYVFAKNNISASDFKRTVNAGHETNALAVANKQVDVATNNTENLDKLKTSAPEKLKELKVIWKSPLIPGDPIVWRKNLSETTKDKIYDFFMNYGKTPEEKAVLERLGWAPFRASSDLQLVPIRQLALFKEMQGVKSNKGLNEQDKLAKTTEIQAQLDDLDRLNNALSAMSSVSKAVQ
EcPhnD, sequence (P16682 27-338): as the sequence (P16682 27-338 N152C) above, with C126N counted along it

NCCP(=O)(O)O [2-Aminoethyl Phosphate (2-AEP), 2-Aminoethyl Phosphonate]
reduction of affinity compared to the wild-type protein (PND177NΔ (SEQ ID NO: 2) [1]): more than 3 orders of magnitude
Kd (PND177NΔ (SEQ ID NO: 2) [2]; [4]): 5.61 µM
Kd (WT (SEQ ID NO: 5) EcPhnD; [5]): 0.002 µM
Kd (EcPhnD; natural ligand, background statement, read-out: Kd of PhnD for 2-AEP): ~0.005 µM

O=C(O)CNCP(=O)(O)O [Glyphosate]
Kd (PND177NΔ (SEQ ID NO: 2) [2]): 4.29 µM
Kd (WT (SEQ ID NO: 5) EcPhnD): 650 µM
Kd (EcPhnD; previous research, read-out: Kd of EcPhnD for glyphosate): ~650 µM

Arsenate
Kd (PND177NΔ (SEQ ID NO: 2) [2]; [4]): 10.7 µM
affinity of the sensor for the ligand, in words (PND177NΔ (SEQ ID NO: 2) [2]): moderate affinities
Kd (WT (SEQ ID NO: 5) EcPhnD; [5]): 230 µM

Phosphate
Kd (PND177NΔ (SEQ ID NO: 2) [2]; [4]): 26.1 µM
affinity of the sensor for the ligand, in words (PND177NΔ (SEQ ID NO: 2) [2]): moderate affinities
Kd (WT (SEQ ID NO: 5) EcPhnD; [5]): 260 µM

B1: E177N (protein)
chain: EEQEKALNFGIISTESQQNLKPQWTPFLQDMEKKLGVKVNAFFAPDYAGIIQGMRFNKVDIAWYGNLSAMEAVDRANGQVFAQTVAADGSPGYWSVLIVNKDSPINNLNDLLAKRKDLTFGNGDPCSTSGFLVPGYYVFAKNNISASDFKRTVNAGHETNALAVANKQVDVATNNTNNLDKLKTSAPEKLKELKVIWKSPLIPGDPIVWRKNLSETTKDKIYDFFMNYGKTPEEKAVLERLGWAPFRASSDLQLVPIRQLALFKEMQGVKSNKGLNEQDKLAKTTEIQAQLDDLDRLNNALSAMSSVSKAVQ
fold increase in affinity for glyphosate over the wild-type protein [3]: 80 fold

B2: E177NΔ (protein)
chain: EEQEKALNFGIISTESQQNLKPQWTPFLQDMEKKLGVKVNAFFAPDYAGIIQGMRFNKVDIAWYGNLSAMEAVDRANGQVFAQTVAADGSPGYWSVLIVNKDSPINNLNDLLAKRKDLTFGNGDPCSTSGFLVPGYYVFAKNNISASDFKRTVNAGHETNALAVANKQVDVATNNTNNLDKLKTSAPEKLKELKVIWKSPLIPGSPIVWRKNLSETTKDKIYDFFMNYGKTPEEKAVLERLGWAPFRASSDLQLVPIRQLALFKEMQGVKSNKGLNEQDKLAKTTEIQAQLDDLDRLNNALSA
fold increase in affinity for glyphosate over the wild-type protein [3]: over 150 fold
fluorescence change associated with glyphosate binding ([3]; saturating glyphosate (FIG. 6)): large decrease in fluorescence
